EC50 and IC50 data for eleven molecules are collected here from ChEMBL document CHEMBL1255559, “Novel macrocyclic HCV NS3 protease inhibitors derived from α-amino cyclic boronates” (Bioorg Med Chem Lett, 2010).

Molecules are shown by their SMILES.

Experiment [1] has as its system Hepatitis C virus. Kind of experiment: Antiviral activity against HCV 1b infected in human hepatoma cells by replicon assay. In kind it is functional, organism-based, Hepacivirus hominis. The conditions noted are these: genotype 1b.
Experiment [2] can be described thus: Inhibition of HCV 1a NS3/4A protease by FRET assay. More on the design: species or system Hepatitis C virus subtype 1a.
Experiment [3] deals with Hepatitis C virus. Kind of experiment: Antiviral activity against HCV 1a infected in human hepatoma cells by replicon assay. In kind it is functional, organism-based, Hepacivirus hominis. To be noted: subtype 1a.

As to `CC1(C)CCCCc2cccc3c2CN(C3)C(=O)O[C@@H]2C[C@@H](C(=O)N[C@@H]3BOCC3)N(C2)C(=O)[C@H](C(C)(C)C)NC(=O)OC1`, the EC50 in experiment [1] worked out at 0.354 µM; in experiment [3], 0.78 µM. Moreover, in experiment [2], the IC50 was 0.043 µM.

`C[C@@H]1COB[C@@H]1NC(=O)[C@@H]1C[C@@H]2CN1C(=O)[C@H](C(C)(C)C)NC(=O)OCC(C)(C)CCCCc1cccc3c1CN(C3)C(=O)O2`: the EC50 is 30 µM in experiment [1] and 33 µM in experiment [3]. The concentration for half-maximal inhibition (IC50) in experiment [2] turned out to be 25 µM.

Consider `CC[C@@H]1C[C@]1(NC(=O)[C@@H]1C[C@@H]2CN1C(=O)[C@H](C(C)(C)C)NC(=O)OCC(C)(C)CCCCc1cccc3c1CN(C3)C(=O)O2)C(=O)NS(=O)(=O)C1CC1`, for which the EC50 in experiment [1] and in experiment [3] was no more than 0.001 µM in each case.

On to `CC1(C)CCCCc2cccc3c2CN(C3)C(=O)O[C@@H]2C[C@@H](C(=O)N[C@H]3CCCOB3O)N(C2)C(=O)[C@H](C(C)(C)C)NC(=O)OC1`, for which the concentration for a half-maximal effect (EC50) in experiment [1] was determined as 2.8 µM; in experiment [3] it was 1.3 µM. The molecule also returned a half-inhibitory concentration (IC50) in experiment [2] of 0.062 µM.

On to `CC1(C)CCCCc2cccc3c2CN(C3)C(=O)O[C@@H]2C[C@@H](C(=O)N[C@@H]3BOC[C@@H]3C3CC3)N(C2)C(=O)[C@H](C(C)(C)C)NC(=O)OC1`, for which the concentration giving a half-maximal response (EC50) in experiment [1] worked out at 4.2 µM; in experiment [3], 0.98 µM. Moreover, the IC50 in experiment [2] came out at 0.11 µM.

As to `CC1(C)CCCCc2cccc3c2CN(C3)C(=O)O[C@@H]2C[C@@H](C(=O)N[C@H]3BOCC3)N(C2)C(=O)[C@H](C(C)(C)C)NC(=O)OC1`, the concentration giving a half-maximal response (EC50) is greater than 50 µM in experiment [1] and 11 µM in experiment [3]. In addition, the half-inhibitory concentration (IC50) in experiment [2] came out at 1.4 µM.

On to `CC1(C)CCCCc2cccc3c2CN(C3)C(=O)O[C@@H]2C[C@@H](C(=O)N[C@H]3CCCCOB3O)N(C2)C(=O)[C@H](C(C)(C)C)NC(=O)OC1`, for which the EC50 in experiment [1] turned out to be 0.2 µM; in experiment [3] it was 0.38 µM. Inhibition in experiment [2] was half-maximal at 0.047 µM (IC50).

Take `CC(C)(C)[C@H](NC(=O)OC1CCCC1)C(=O)N1C[C@H](OC(=O)N2Cc3cccc(F)c3C2)C[C@H]1C(=O)N[C@@H]1BOCC1`: the EC50 in experiment [1] was greater than 10 µM; in experiment [3], 8.7 µM.

On to `C[C@H]1COB[C@H]1NC(=O)[C@@H]1C[C@@H]2CN1C(=O)[C@H](C(C)(C)C)NC(=O)OCC(C)(C)CCCCc1cccc3c1CN(C3)C(=O)O2`, for which the 50% effective concentration (EC50) was 1.7 µM in experiment [1] and 1.9 µM in experiment [3]. In experiment [2], this molecule came in with an IC50 of 0.13 µM.

Consider `CC1(C)CCCCc2cccc3c2CN(C3)C(=O)O[C@@H]2C[C@@H](C(=O)N[C@@H]3CCCCOB3O)N(C2)C(=O)[C@H](C(C)(C)C)NC(=O)OC1`, for which the concentration giving a half-maximal response (EC50) in experiment [1] is 3.9 µM; in experiment [3], 3.7 µM. In addition, in experiment [2], the IC50 came out at 0.3 µM.

For `CC1(C)CCCCc2cccc3c2CN(C3)C(=O)O[C@@H]2C[C@@H](C(=O)N[C@@H]3CCCOB3O)N(C2)C(=O)[C@H](C(C)(C)C)NC(=O)OC1`, the EC50 in experiment [1] is greater than 25 µM; in experiment [3], 12 µM. This molecule showed an IC50 in experiment [2] of 1.3 µM.
